The values that follow come from ChEMBL document CHEMBL5108002, “Design, synthesis, and biological evaluation of novel 7-substituted 10,11-methylenedioxy-camptothecin derivatives against drug-resistant small-cell lung cancer in vitro and in vivo” (Eur J Med Chem, 2022).

In data set [1] the test system is NCI-H446. In words: Antitumor activity against human NCI-H446 cells xenografted in BALB/c nude mouse assessed as tumor growth inhibition at 0.75 mg/kg, IG administered once a week for 28 days by electronic caliper method relative to control. The format is functional. Particulars: NCI-H446, po, 672 h, time 28 day, read-out: TGI.
A further data set relates to Bel-7402. In words: Antiproliferative activity against human Bel-7402 cells assessed as inhibition of cell growth incubated for 72 hrs by SRB assay. Particulars: Bel-7402, 72 h. It is filed as functional, cell-based.
In data set [2] the test system is NCI-H446. In words: Induction of apoptosis in human NCI-H446 cells assessed as reduction in XIAP mRNA level at 0.1 to 100 nM incubated for 24 hrs by RT-PCR analysis. The format is functional, cell-based. As to conditions: dose 0.1-100 nM.
The subject of data set [3] is NCI-H446. In words: Induction of apoptosis in human NCI-H446 cells assessed as dead cells at 1 nM incubated for 24 hrs by AnnexinV-FITC/PI staining based flow cytometry analysis (reference value: 0.22 %). It is filed as functional.
A further data set has as its system Mus musculus. In words: Downregulation of Bcl-2 protein expression in tumor of BALB/c mouse xenografted with human NCI-H446 cells at 0.75 mg/kg, IG administered intragastrically once a week for 28 days by western blot analysis. It is filed as functional, organism-based. Particulars: time 28.0 day.
The subject of data set [4] is NCI-H69. In words: Induction of apoptosis in human NCI-H69 cells assessed as increase in cleaved-PARP protein expression at 0.1 to 100 nM measured after 24 hrs by Western blot analysis. As to conditions: dose 0.1-100 nM. It is filed as functional, cell-based.
The test system of data set [5] is NCI-H446. In words: Induction of apoptosis in human NCI-H446 cells assessed as inhibition of XIAP protein expression incubated for 24 hrs by Western blot analysis. It is filed as functional, cell-based. As to conditions: dose 0.1-100 nM.
The subject of data set [6] is NCI-H446. In words: Induction of apoptosis in human NCI-H446 cells assessed as early apoptotic cells at 1 nM incubated for 24 hrs by AnnexinV-FITC/PI staining based flow cytometry analysis (reference value: 3.1 %). It is filed as functional.
Data set [7] in a line: Toxicity in BALB/c nude mouse xenografted with human NCI-H446 cells assessed as reduction in body weight at high dose administered intragastrically once a week for 28 days and measured three times a week. Particulars: in vivo, po, 672 h, route ig, time 28 day.
Data set [8] has as its system NCI-H69. In words: Induction of apoptosis in human NCI-H69 cells assessed as increase in cleaved-caspase 9 protein expression at 0.1 to 100 nM measured after 24 hrs by Western blot analysis. Particulars: dose 0.1-100 nM. It is filed as functional, cell-based.
The next data set relates to H69AR. In words: Induction of apoptosis in human NCI-H69AR cells assessed as increase in cleaved-caspase 9 protein expression at 0.1 to 100 nM measured after 24 hrs by Western blot analysis. Particulars: dose 0.1-100 nM. It is filed as functional, cell-based.
Data set [9] relates to NCI-H69. In words: Induction of apoptosis in human NCI-H69 cells assessed as inhibition of Bcl-2 protein expression at 0.1 to 100 nM incubated for 24 hrs by Western blot analysis. It is filed as functional, cell-based. Particulars: dose 0.1-100 nM.
For data set [10], the system named is NCI-H446. In words: Induction of apoptosis in human NCI-H446 cells assessed as inhibition of Bcl-2 protein expression incubated for 24 hrs by Western blot analysis. It is filed as functional, cell-based. As to conditions: dose 0.1-100 nM.

Each structure is given as a SMILES string. Calls of active or inactive are those of the source. The rule behind the calls is not given here.

For the molecule `CC[C@@]1(O)C(=O)OCc2c1cc1n(c2=O)Cc2c-1nc1cc3c(cc1c2-c1ccoc1)OCO3`, the inhibition in vivo at 0.75 mg/kg in the data set with NCI-H446 [1] was 40.4%. The IC50 in the data set with Bel-7402 turned out to be 3.8 nM. For the same molecule, the result with NCI-H446 [2], in the data set on Mus musculus, with NCI-H69 [4], in the data set on NCI-H69 [8] and in the data set with H69AR was Active. The Activity is 3.79% in the data set on NCI-H446 [3], 13.08% in the data set on NCI-H446 [6] and “Toxic” in [7]. Besides, the inhibition entry in the data set on NCI-H446 [5], with NCI-H69 [9] and in the data set on NCI-H446 [10] was “Active” each time.
